Experimental data: ChEMBL document CHEMBL1148086, “Isolation of the furan fatty acid, (8Z,11Z,14Z,17Z)-3,6-epoxyeicos-3,5,8,11,14,17-hexenoic acid from the New Zealand sponge Hymeniacidon hauraki” (J Nat Prod, 1994)
Values after ≈ are worked out from the molar mass of the structure shown. Active and inactive are the calls of the source. The rule behind the calls is not given here.

How the values were obtained:
P388 = assay: Cytotoxicity against mouse P388 cells after 48 hrs by SRB assay; format: functional, cell-based
Human alphaherpesvirus 1 = assay: Antiviral activity against Herpes simplex virus type 1 in african green monkey BSC1 cells after 24 hrs; format: functional, organism-based
Poliovirus 1 = assay: Antiviral activity against Polio virus type 1 in african green monkey BSC1 cells after 24 hrs; format: functional, organism-based
[1] = Cytotoxicity against african green monkey BSC1 cells after 24 hrs; format: cell-based; details: chlorocebus aethiops, bsc-1, 24 h

With `CC/C=C\C/C=C\C/C=C\C/C=C\Cc1ccc(CC(=O)OC)o1` the IC50 (P388; p388) was “Not Active”, the IC50 (Human alphaherpesvirus 1; bsc-1) was “Not Active” and the IC50 (Poliovirus 1; bsc-1) was “Not Active”. The Activity [1] was “Not Active”.
With `CC/C=C\C/C=C\C/C=C\C/C=C\Cc1ccc(CC(=O)O)o1` the IC50 (P388; Mus musculus, P388, 48 h, read-out: IC50) was 13.4 µg/mL (≈ 42.6 µM), the Activity (Human alphaherpesvirus 1; BSC-1) was “Active” and the Activity (Poliovirus 1; BSC-1) was “Active”. For the same compound, the Activity [1] was 2 mm.
